From patent US20250281481A1, “NALTREXONE FOR BOOSTING THE THERAPEUTIC UTILTY OF 5-HT RECEPTOR AGONISTS” (LDN Pharma Limited, priority 2021, published 2025)

Key:
Type in all cases: cell-based, human
[1] = tested on: 5-HT receptor 3A, transcript variant 1, mRNA (HTR3A); assay: Microarray gene expression in CD3+ lymphocytes, HTR3A transcript variant 1; settings: naltrexone 10 nM, 4 h, probe 1681492
Protocol: (§1) CD3+ lymphocytes were isolated from the blood of haematologically normal volunteers. Cells placed into 25 cm^3 flasks at a concentration of 1×10^6/ml, and left to equilibrate in an incubator with a humidified atmosphere and 5% CO2 in air at 37° C. […] RNA extraction was performed using Trizol according to standard procedures, before being processed for microarray analysis according to the standard methodologies. Briefly, equal amounts of biotinylated cRNA was hybridised to the Illumina human HT12-v3 arrays for 18 h and subsequently processed according to manufacturer's instructions before scanning on an Illumina BeadArray Reader. The image data were processed using default values in GenomeStudio v2009.1 with imputation of missing data, before loading onto GeneSpring v9.0 for data normalisation and filtering. Data analyses were performed using Excel software, and the ratio of gene expression signals in treated vs. untreated calculated.

[2] = tested on: 5-HT receptor 3A, transcript variant 2, mRNA (HTR3A); assay: Microarray gene expression in CD3+ lymphocytes, HTR3A transcript variant 2; settings: 4 h, probe 2371079
Protocol: as §1

[3] = tested on: 5-HT receptor 1E, mRNA (HTR1E); assay: Microarray gene expression in CD3+ lymphocytes, HTR1E; settings: 4 h, probe 1794095
Protocol: as §1

[4] = tested on: mRNA for one or more of 5-HT receptor proteins; assay: Microarray gene expression in CD3+ lymphocytes, overall statement; settings: both higher dose and low dose naltrexone, 4 h
Protocol: as §1

[5] = tested on: 5-HT receptor 4, transcript variant a, mRNA (HTR4); assay: Microarray gene expression in CD3+ lymphocytes, HTR4 transcript variant a; settings: 4 h, probe 1676350
Protocol: as §1

[6] = tested on: 5-HT receptor 4, transcript variant hb, mRNA (HTR4); assay: Microarray gene expression in CD3+ lymphocytes, HTR4 transcript variant hb; settings: naltrexone 10 nM, 4 h, probe 1808258
Protocol: as §1

[7] = tested on: 5-HT receptor 2B, mRNA (HTR2B); assay: Microarray gene expression in CD3+ lymphocytes, HTR2B; settings: 4 h, probe 1735764
Protocol: as §1

Structure (SMILES): O=C1CC[C@@]2(O)[C@H]3Cc4ccc(O)c5c4[C@@]2(CCN3CC2CC2)[C@H]1O5 [NTX, morphinan-6-one,17-(cyclopropylmethyl)-4,5-epoxy-3,14-dihydroxy-(5α)]
- gene expression signal, LDN [1]: 94.00
- gene expression signal, LDN ([2]; naltrexone 10 nM): 124.70
- gene expression signal, NTX ([2]; naltrexone 10 uM): 151.75
- gene expression signal, LDN ([3]; naltrexone 10 nM): 101.20
- gene expression signal, NTX ([3]; naltrexone 10 uM): 95.70
- levels of mRNA for one or more of 5-HT receptor proteins [4]: increase the levels of mRNA
- gene expression signal, LDN ([5]; naltrexone 10 nM): 100.20
- gene expression signal, NTX ([5]; naltrexone 10 uM): 96.10
- gene expression signal, LDN [6]: 93.50
- gene expression signal, LDN ([7]; naltrexone 10 nM): 147.45
- gene expression signal, NTX ([7]; naltrexone 10 uM): 177.95
